The record followed here is US20230416248A1, “COMPOUNDS AND USES THEREOF” (Foghorn Therapeutics Inc., priority 2020, published 2023).

In assay [1] the target is T1, BRG-1 (Homo sapiens, UniProt P51532).
T1 construct: made in house; host or cells: High Five insect cells
The assay can be described thus: ATPase catalytic activity of BRG-1, ADP-Glo in vitro biochemical assay. Particulars: ATPase catalytic activity, ADP-Glo; 30 nM BRG-1, 400 μM ATP; read-out: BRG1 IC50. Summed up: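 In this in vitro format, BRG-1 hydrolysis product ADP is detected via a two-step ADP-Glo workup (ATP removal, then ADP-to-ATP conversion with luciferase detection) followed by a luminescence read.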
On the technique in general: ADP-Glo first removes unused ATP, then detects ADP through luciferase.

The target of assay [2] is T2, BRM (Homo sapiens, UniProt P51531).
T2 construct: made in house; host or cells: High Five insect cells
T2 sequence (P51531 whole entry): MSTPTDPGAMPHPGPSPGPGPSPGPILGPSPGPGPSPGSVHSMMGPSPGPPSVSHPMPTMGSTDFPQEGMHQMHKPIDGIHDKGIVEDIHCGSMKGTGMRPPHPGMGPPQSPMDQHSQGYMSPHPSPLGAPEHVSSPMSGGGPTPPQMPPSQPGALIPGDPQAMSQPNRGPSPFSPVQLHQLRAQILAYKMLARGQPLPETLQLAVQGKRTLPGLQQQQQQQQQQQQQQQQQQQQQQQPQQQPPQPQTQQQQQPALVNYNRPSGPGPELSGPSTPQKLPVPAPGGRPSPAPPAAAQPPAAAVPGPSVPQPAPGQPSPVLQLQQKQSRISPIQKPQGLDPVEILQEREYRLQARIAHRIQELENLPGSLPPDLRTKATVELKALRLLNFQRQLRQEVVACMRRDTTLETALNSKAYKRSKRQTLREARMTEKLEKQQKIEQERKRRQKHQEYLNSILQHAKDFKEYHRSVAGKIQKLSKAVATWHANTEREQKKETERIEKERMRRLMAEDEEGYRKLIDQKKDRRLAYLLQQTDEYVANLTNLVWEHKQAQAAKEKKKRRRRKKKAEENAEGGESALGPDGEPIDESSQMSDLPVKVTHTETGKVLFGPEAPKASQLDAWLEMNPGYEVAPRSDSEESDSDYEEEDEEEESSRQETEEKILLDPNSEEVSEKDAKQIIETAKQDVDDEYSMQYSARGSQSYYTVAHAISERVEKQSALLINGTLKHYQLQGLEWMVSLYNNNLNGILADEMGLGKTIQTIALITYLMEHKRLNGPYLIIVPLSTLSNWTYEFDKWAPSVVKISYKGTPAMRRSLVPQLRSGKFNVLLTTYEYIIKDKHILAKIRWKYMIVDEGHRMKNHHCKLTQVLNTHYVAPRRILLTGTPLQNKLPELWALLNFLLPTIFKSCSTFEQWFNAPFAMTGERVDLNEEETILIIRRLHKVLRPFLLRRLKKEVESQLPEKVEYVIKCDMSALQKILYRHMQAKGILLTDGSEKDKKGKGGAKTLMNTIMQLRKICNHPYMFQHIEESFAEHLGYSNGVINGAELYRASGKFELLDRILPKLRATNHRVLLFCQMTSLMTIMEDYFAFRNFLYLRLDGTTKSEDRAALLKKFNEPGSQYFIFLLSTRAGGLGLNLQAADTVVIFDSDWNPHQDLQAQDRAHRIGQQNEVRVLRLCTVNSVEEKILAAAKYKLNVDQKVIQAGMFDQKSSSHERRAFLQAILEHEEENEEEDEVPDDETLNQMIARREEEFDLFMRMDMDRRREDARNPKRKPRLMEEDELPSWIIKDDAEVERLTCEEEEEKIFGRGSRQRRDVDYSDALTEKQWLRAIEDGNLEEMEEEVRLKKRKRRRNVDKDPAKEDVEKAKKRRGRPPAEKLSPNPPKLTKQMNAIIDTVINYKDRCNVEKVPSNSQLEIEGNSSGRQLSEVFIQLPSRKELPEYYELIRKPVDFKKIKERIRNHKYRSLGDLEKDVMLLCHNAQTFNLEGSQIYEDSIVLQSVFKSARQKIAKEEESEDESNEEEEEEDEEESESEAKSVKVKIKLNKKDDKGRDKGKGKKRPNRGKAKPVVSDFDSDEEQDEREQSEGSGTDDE
Kind of assay: ATPase catalytic activity of BRM, ADP-Glo in vitro biochemical assay. As to conditions: for IC50: ATPase catalytic activity, ADP-Glo, 30 nM BRM, 400 μM ATP; for Ratio*: ratio of BRG1 IC50 to BRM IC50. In short, it runs like this: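 ADP-Glo luminescence, after depletion of leftover ATP and conversion of ADP, reported the activity. The 1 h room-temperature reaction held 400 μM ATP, 20 nM salmon sperm DNA and 30 nM BRM in 20 mM Tris pH 8, 20 mM MgCl2, 50 mM NaCl, 0.1% Tween-20, 1 mM DTT.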

The IC50 is the point on the concentration scale where inhibition reaches its midpoint.

T1 sequence (P51532 whole entry): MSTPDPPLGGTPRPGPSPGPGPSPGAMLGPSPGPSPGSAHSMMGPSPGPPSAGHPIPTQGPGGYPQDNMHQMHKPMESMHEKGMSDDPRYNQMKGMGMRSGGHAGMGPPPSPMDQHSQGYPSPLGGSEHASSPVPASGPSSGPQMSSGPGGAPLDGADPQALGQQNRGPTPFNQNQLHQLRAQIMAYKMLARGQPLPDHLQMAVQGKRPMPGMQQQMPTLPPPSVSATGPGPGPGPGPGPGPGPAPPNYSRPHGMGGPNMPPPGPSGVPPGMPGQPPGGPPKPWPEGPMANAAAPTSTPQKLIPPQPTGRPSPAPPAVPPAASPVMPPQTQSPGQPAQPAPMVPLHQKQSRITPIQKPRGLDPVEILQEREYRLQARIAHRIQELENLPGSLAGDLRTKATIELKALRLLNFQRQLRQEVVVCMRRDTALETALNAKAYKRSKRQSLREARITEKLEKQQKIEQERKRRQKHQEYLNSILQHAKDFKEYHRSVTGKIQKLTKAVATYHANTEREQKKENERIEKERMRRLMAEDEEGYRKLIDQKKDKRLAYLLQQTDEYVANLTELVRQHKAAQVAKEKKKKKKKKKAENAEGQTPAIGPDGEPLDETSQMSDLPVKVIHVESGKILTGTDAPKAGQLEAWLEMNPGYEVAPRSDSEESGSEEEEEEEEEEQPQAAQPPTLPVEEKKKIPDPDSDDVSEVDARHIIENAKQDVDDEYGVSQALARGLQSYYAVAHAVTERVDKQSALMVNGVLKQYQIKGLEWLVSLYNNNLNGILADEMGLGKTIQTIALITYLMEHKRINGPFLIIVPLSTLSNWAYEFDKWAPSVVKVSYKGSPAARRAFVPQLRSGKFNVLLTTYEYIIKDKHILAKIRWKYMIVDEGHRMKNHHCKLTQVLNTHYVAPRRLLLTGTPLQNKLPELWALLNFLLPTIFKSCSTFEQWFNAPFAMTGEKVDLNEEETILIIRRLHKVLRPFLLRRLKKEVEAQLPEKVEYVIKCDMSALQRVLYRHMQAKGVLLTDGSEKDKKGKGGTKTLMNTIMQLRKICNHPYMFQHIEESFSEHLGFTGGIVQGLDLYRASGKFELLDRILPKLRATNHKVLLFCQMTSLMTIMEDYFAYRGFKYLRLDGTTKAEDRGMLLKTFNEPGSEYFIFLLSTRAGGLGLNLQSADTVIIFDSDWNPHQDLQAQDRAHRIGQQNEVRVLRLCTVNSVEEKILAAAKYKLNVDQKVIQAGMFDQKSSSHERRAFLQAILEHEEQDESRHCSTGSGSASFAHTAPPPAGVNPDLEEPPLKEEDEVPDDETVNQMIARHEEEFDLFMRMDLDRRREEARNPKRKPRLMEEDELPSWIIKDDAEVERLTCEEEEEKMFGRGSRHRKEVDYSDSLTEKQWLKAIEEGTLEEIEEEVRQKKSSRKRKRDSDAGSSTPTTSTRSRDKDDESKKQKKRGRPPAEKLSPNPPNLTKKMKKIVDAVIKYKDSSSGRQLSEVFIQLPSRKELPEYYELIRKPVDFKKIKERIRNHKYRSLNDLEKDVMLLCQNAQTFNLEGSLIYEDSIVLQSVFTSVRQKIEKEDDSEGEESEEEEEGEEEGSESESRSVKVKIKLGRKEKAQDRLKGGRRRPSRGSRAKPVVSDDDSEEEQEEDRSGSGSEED

As to `CCOc1ccc2c(n1)N(c1ccc3cnc(CNC(=O)c4ccc5c(c4)S(=O)(=O)CCOC5)cc3n1)CCC2` [Compound 576], the IC50 was 1680 nM in assay [1] and 88.9 nM in assay [2]. Further, in assay [2], the “Ratio*” value came to 18.86.
In the case of `C[C@@H]1CN(c2cccc(-c3ccc4cnc(CNC(=O)c5ccc(COC6CC6)c(S(C)(=O)=O)c5)cc4n3)n2)C[C@H](C)O1` [Compound 578], the IC50 in assay [1] was 525 nM. In addition, in assay [2], the IC50 stood at 27.7 nM and the “Ratio*” value is given as 19.00.
For `CC[C@@H]1CCS(=O)(=O)c2cc(C(=O)NCc3cc4nc(-c5cccc(N6C[C@@H](C)O[C@@H](C)C6)n5)ccc4cn3)ccc2O1` [Compound 580], in assay [1], the IC50 amounted to 1760 nM. Besides, in assay [2], half-maximal inhibition (IC50) was put at 106 nM and the “Ratio*” value is reported as 16.67.
Turning to `C[C@@H]1CN(c2cccc(-c3ccc4cnc(CNC(=O)c5ccc6c(c5)S(=O)(=O)CC[C@@H](C(F)F)O6)cc4n3)n2)C[C@H](C)O1` [Compound 581], the IC50 in assay [1] was 2370 nM; in assay [2], 155 nM. In assay [2], the “Ratio*” value came out at 15.23.
The like results for `O=C(NCc1cc2nc(N3CCOc4ccc(C(F)(F)F)nc43)ccc2cn1)c1ccc2c(c1)S(=O)(=O)CCOC2` [Compound 583] were, in that order, 1890 nM, 109 nM and 17.41.
On to `COC1(Cn2ccc3c(-c4ccc5cnc(CNC(=O)c6ccc7c(c6)S(=O)(=O)CCOC7)cc5n4)ccnc32)CC1` [Compound 585], for which the IC50 in assay [1] came to 369 nM. Besides, in assay [2], the IC50 came to 40.1 nM and the “Ratio*” value is 9.22.
As for `COCCOc1ccc2c(c1)N(c1ccc3cnc(CNC(=O)c4ccc5c(c4)S(=O)(=O)CCOC5)cc3n1)CCC2` [Compound 586], in assay [1], the IC50 is 81.9 nM. For the same molecule, in assay [2], the IC50 was 5.5 nM and the “Ratio*” value came out at 14.77.
For `C[C@@H]1CN(c2cccc(-c3ccc4cnc(CNC(=O)c5ccc6c(c5)S(=O)(=O)CCC(F)(F)C6)cc4n3)n2)C[C@H](C)O1` [Compound 587] the same measures were 63.9 nM, 11.2 nM and 5.69.
In the case of `O=C(NCc1cc2nc(N3CCCc4cc(Cl)cnc43)ccc2cn1)c1ccc2c(c1)S(=O)(=O)CCOC2` [Compound 588], the IC50 in assay [1] was found to be 412 nM. For the same molecule, in assay [2], the IC50 came out at 28.9 nM and the “Ratio*” value is recorded as 14.25.
`O=C(NCc1cc2nc(N3CCCc4ccc(OCC5CC5)nc43)ccc2cn1)c1ccc2c(c1)S(=O)(=O)CCOC2` [Compound 589]: the IC50 in assay [1] amounted to 1080 nM. For the same molecule, in assay [2], inhibition was half-maximal at 77.7 nM (IC50) and the “Ratio*” value is listed as 13.88.
On to `COCc1cc2c(nc1C)N(c1ccc3cnc(CNC(=O)c4ccc5c(c4)S(=O)(=O)CCOC5)cc3n1)CCC2` [Compound 590], for which the values for the IC50 in assay [1] and in assay [2] were 177 nM and 22.4 nM, respectively. In addition, the “Ratio*” value in assay [2] turned out to be 7.93.
As for `O=C(NCc1cc2nc(N3CCCc4cc(F)cnc43)ccc2cn1)c1ccc2c(c1)S(=O)(=O)CCOC2` [Compound 591], the IC50 in assay [1] is 242 nM. Further, in assay [2], 22 nM corresponded to half-maximal inhibition (IC50) and the “Ratio*” value worked out at 10.98.
On to `Cc1ccc2c(n1)N(c1ccc3cnc(CNC(=O)c4ccc5c(c4)S(=O)(=O)CCOC5)cc3n1)CCN2C` [Compound 593], for which, in assay [1], the IC50 is 2190 nM. In assay [2], the midpoint of inhibition, the IC50, lay at 243 nM and the “Ratio*” value was found to be 9.02.
Turning to `O=C(NCc1cc2nc(N3CCOc4ccc(C(F)F)nc43)ccc2cn1)c1ccc2c(c1)S(=O)(=O)CCOC2` [Compound 594], in assay [1], the IC50 stood at 1190 nM. In assay [2], the IC50 is 37.2 nM and the “Ratio*” value is 31.92.
In the case of `CC1CN(c2cccc(-c3ccc4cnc(CNC(=O)c5cnc6c(c5)S(=O)(=O)C(C)CC6)cc4n3)n2)CC(C)O1` (stereo not drawn) [Compound 597], the IC50 in assay [1] worked out at 479 nM. Moreover, in assay [2], the half-inhibitory concentration (IC50) came out at 41.3 nM and the “Ratio*” value stood at 11.61.
Regarding `O=C(NCc1cc2nc(N3CCCc4ccc(COC5CC5)nc43)ccc2cn1)c1ccc2c(c1)S(=O)(=O)CCOC2` [Compound 598], the IC50 in assay [1] was found to be 991 nM. For the same molecule, in assay [2], the midpoint of inhibition, the IC50, lay at 29.3 nM and the “Ratio*” value was determined as 33.79.
For `COCc1nc2c(cc1Cl)CCCN2c1ccc2cnc(CNC(=O)c3ccc4c(c3)S(=O)(=O)CCOC4)cc2n1` [Compound 599] the same measures were 737 nM, 58.8 nM and 12.54.
The like results for `O=C(NCc1cc2nc(N3CCC4(CC4)c4cccnc43)ccc2cn1)c1ccc2c(c1)S(=O)(=O)CCOC2` [Compound 600] were, in that order, 176 nM, 13.2 nM and 13.32.
For `O=C(NCc1cc2nc(N3CCCc4ccc(OCC(F)F)nc43)ccc2cn1)c1ccc2c(c1)S(=O)(=O)CCOC2` [Compound 601] the same measures were 1910 nM, 215 nM and 8.88.
Consider `COc1cc2c(nc1C)N(c1ccc3cnc(CNC(=O)c4ccc5c(c4)S(=O)(=O)CCOC5)cc3n1)CCC2` [Compound 602], for which the values for the IC50 in assay [1] and in assay [2] were 158 nM and 15.8 nM, respectively. For the same molecule, the “Ratio*” value in assay [2] amounted to 9.98.
Regarding `O=C(NCc1cc2nc(N3CCCc4ccc(F)nc43)ccc2cn1)c1ccc2c(c1)S(=O)(=O)CCOC2` [Compound 603], the concentration for half-maximal inhibition (IC50) in assay [1] came to 117 nM. Further, in assay [2], the IC50 was 10.7 nM and the “Ratio*” value stood at 10.88.
Regarding `O=C(NCc1cc2nc(-c3cccc(N4CC(C5COC5)C4)n3)ccc2cn1)c1ccc2c(c1)S(=O)(=O)CCOC2` [Compound 604], the IC50 in assay [1] is 56.9 nM. For the same molecule, in assay [2], half-maximal inhibition (IC50) was put at 5.7 nM and the “Ratio*” value is given as 10.00.
As for `COCc1ccc2c(c1)N(c1ccc3cnc(CNC(=O)c4ccc5c(c4)S(=O)(=O)CCOC5)cc3n1)CCC2` [Compound 605], the IC50 in assay [1] came out at 187 nM. For the same molecule, in assay [2], inhibition was half-maximal at 11.7 nM (IC50) and the “Ratio*” value is 16.04.
With `O=C(NCc1cc2nc(N3CCOc4ccc(C5CC5)cc43)ccc2cn1)c1ccc2c(c1)S(=O)(=O)CCOC2` [Compound 606], the half-inhibitory concentration (IC50) came out at 125 nM in assay [1] and 7.5 nM in assay [2]. Also, in assay [2], the “Ratio*” value is reported as 16.72.
For `CO[C@@H](C)c1cnc2c(c1)CCCN2c1ccc2cnc(CNC(=O)c3ccc4c(c3)S(=O)(=O)CCOC4)cc2n1` [Compound 607], the IC50 in assay [1] was 702 nM; in assay [2], 44.6 nM. Moreover, the “Ratio*” value in assay [2] is given as 15.74.
`CO[C@H](C)c1cnc2c(c1)CCCN2c1ccc2cnc(CNC(=O)c3ccc4c(c3)S(=O)(=O)CCOC4)cc2n1` [Compound 608]: the IC50 in assay [1] was determined as 952 nM. Further, in assay [2], the IC50 was determined as 44.5 nM and the “Ratio*” value was 21.42.
Consider `C[C@@H]1CN(c2cccc(-c3ccc4cnc(CNC(=O)c5ccc6c(c5)S(=O)(=O)[C@@H](C)COC6)cc4n3)c2F)C[C@H](C)O1` [Compound 609], for which the IC50 in assay [1] amounted to 1110 nM. For the same molecule, in assay [2], the midpoint of inhibition, the IC50, lay at 39.2 nM and the “Ratio*” value turned out to be 28.40.
On to `C[C@@H]1CN(c2nccc(-c3ccc4cnc(CNC(=O)c5ccc6c(c5)S(=O)(=O)[C@@H](C)COC6)cc4n3)c2F)C[C@H](C)O1` [Compound 610], for which the IC50 in assay [1] worked out at 1110 nM. Also, in assay [2], the IC50 was 51.3 nM and the “Ratio*” value worked out at 21.62.
For `CC1Cc2ccc(-c3ccc4cnc(CNC(=O)c5ccc6c(c5)S(=O)(=O)CCOC6)cc4n3)nc2N(C)C1` (stereo not drawn) [Compound 612], the IC50 in assay [1] stood at 350 nM. In assay [2], the IC50 turned out to be 26.6 nM and the “Ratio*” value turned out to be 13.16.
With `CO[C@H]1COc2c(-c3ccc4cnc(CNC(=O)c5ccc6c(c5)S(=O)(=O)CCOC6)cc4n3)cccc2N(C)C1` [Compound 613], the IC50 in assay [1] was 2220 nM. Further, in assay [2], 213 nM corresponded to half-maximal inhibition (IC50) and the “Ratio*” value was determined as 10.41.
Take `CO[C@@H]1COc2c(-c3ccc4cnc(CNC(=O)c5ccc6c(c5)S(=O)(=O)CCOC6)cc4n3)cccc2N(C)C1` [Compound 614]: the 50% inhibitory concentration (IC50) in assay [1] turned out to be 862 nM. Also, in assay [2], the IC50 is 95.1 nM and the “Ratio*” value is recorded as 9.06.
In the case of `CCN1CCN(c2ccc3cnc(CNC(=O)c4ccc5c(c4)S(=O)(=O)CCOC5)cc3n2)c2ncccc21` [Compound 615], the IC50 in assay [1] worked out at 358 nM. In assay [2], half-maximal inhibition (IC50) was put at 22.1 nM and the “Ratio*” value is listed as 16.22.
The like results for `O=C(NCc1cc2nc(N3CCOc4ccc(C5CC5)nc43)ccc2cn1)c1ccc2c(c1)S(=O)(=O)CCOC2` [Compound 616] were, in that order, 442 nM, 8.2 nM and 54.03.
Consider `CC(F)(F)c1ccc2c(n1)N(c1ccc3cnc(CNC(=O)c4ccc5c(c4)S(=O)(=O)CCOC5)cc3n1)CCO2` [Compound 617], for which the IC50 in assay [1] was found to be 2540 nM. Besides, in assay [2], the 50% inhibitory concentration (IC50) amounted to 90.4 nM and the “Ratio*” value is given as 28.12.
As to `Cc1cnc2c(c1)N(C)CCN2c1ccc2cnc(CNC(=O)c3ccc4c(c3)S(=O)(=O)CCOC4)cc2n1` [Compound 618], the IC50 in assay [1] was 126 nM. In assay [2], the IC50 was determined as 9 nM and the “Ratio*” value was 14.00.
Regarding `COc1cnc2c(c1)OCCN2c1ccc2cnc(CNC(=O)c3ccc4c(c3)S(=O)(=O)CCOC4)cc2n1` [Compound 619], the IC50 in assay [1] amounted to 62.7 nM. In assay [2], the IC50 came out at 5.6 nM and the “Ratio*” value amounted to 11.17.
As for `O=C(NCc1cc2nc(N3CCCc4c(OC(F)F)ccnc43)ccc2cn1)c1ccc2c(c1)S(=O)(=O)CCOC2` [Compound 620], the IC50 in assay [1] was determined as 158 nM. Besides, in assay [2], the IC50 turned out to be 16.8 nM and the “Ratio*” value was determined as 9.37.
Take `COC[C@H]1CCCN(c2cccc(-c3ccc4cnc(CNC(=O)c5ccc6c(c5)S(=O)(=O)CCOC6)cc4n3)n2)C1` [Compound 622]: the IC50 in assay [1] is 109 nM. For the same molecule, in assay [2], half-maximal inhibition (IC50) was put at 27.4 nM and the “Ratio*” value amounted to 3.98.
